Source: ChEMBL document CHEMBL5143509, “An efficient strategy for digging protein-protein interactions for rational drug design - A case study with HIF-1α/VHL” (Eur J Med Chem, 2022)
The source made the active and inactive calls. No cut-off for these calls is given here.

Key:
786-0 = experiment: Cytotoxicity against human 786-0 cells assessed as effect on cell viability at 100 uM measured after 24 hrs by MTT assay; assay type: toxicity, cell-based; settings: 786-0, 24 h
HeLa [1] = experiment: Stabilization of HIF-1 alpha OH in human HeLa cells at 100 uM incubated for 24 hrs by Western blot analysis; assay type: cell-based
HeLa [2] = experiment: Cytotoxicity against human HeLa cells assessed as effect on cell viability at 100 uM measured after 24 hrs by crystal violet staining based assay; assay type: toxicity
[3] = Binding affinity to VBC (unknown origin) using FAM-DEALA-Hyp-YIPD as substrate by fluorescence polarization assay; parameters: species or system Homo sapiens
[4] = Octanol/water partition coefficient, logD of the compound at pH 7.4; assay type: physicochemical
[5] = molecular target: Hypoxia-inducible factor 1-alpha (Homo sapiens) (UniProt Q16665); experiment: Stabilization of HIF-1 alpha in human HeLa cells at 100 uM incubated for 24 hrs by Western blot analysis; assay type: cell-based
Hypoxia-inducible factor 1-alpha (Homo sapiens), sequence (Q16665 whole entry, looked up): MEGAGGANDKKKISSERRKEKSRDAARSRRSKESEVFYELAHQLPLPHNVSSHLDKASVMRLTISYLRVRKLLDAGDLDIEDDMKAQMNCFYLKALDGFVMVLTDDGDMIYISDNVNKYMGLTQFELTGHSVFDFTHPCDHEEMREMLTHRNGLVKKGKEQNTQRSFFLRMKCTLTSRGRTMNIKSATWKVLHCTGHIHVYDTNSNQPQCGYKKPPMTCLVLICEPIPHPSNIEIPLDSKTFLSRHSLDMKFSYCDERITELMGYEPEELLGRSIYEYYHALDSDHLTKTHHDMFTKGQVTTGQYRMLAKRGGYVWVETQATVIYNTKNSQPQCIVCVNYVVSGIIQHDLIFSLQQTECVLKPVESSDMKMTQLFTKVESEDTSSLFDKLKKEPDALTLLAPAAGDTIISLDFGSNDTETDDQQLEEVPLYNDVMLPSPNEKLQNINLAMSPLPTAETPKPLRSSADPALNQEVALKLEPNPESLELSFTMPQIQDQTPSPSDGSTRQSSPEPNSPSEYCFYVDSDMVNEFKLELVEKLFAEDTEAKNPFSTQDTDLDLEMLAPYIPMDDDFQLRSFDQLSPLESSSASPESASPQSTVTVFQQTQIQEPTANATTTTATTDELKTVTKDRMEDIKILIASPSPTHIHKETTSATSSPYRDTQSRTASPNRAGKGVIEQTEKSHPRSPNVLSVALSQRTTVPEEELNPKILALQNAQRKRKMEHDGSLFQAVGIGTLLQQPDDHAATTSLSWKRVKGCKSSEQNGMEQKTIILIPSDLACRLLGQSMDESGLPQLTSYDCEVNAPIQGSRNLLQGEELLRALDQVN

[6] = Octanol-water partition coefficient, logP of the compound; assay type: physicochemical
U2OS [7] = experiment: Upregulation of HIF-1 alpha in human U2OS cells at 100 uM incubated for 24 hrs by Western blot analysis; assay type: functional, cell-based
U2OS [8] = experiment: Cytotoxicity against human U2OS cells assessed as effect on cell viability at 100 uM measured after 24 hrs by MTT assay; assay type: toxicity, cell-based
HeLa [9] = experiment: Upregulation of HIF-1 alpha in human HeLa cells at 100 uM incubated for 24 hrs by Western blot analysis; assay type: functional, cell-based

SMILES: CC(=O)N[C@H](C(=O)N1C[C@H](O)C[C@H]1C(=O)N[C@@H](c1ccccc1)c1ccc(-c2scnc2C)cc1)C(C)(C)C
- Activity (786-0): Non-Toxic
- Activity (HeLa [1]): 1.01 fold
- Activity (HeLa [2]): Non-Toxic
- IC50 [3]: 0.23 µM
- logD ([4]; read-out: logD): 2.55
- Activity [5]: 2.21 fold
- logP ([6]; read-out: logP): 2.55

SMILES: CCOC(=O)CC[C@H](NC(=O)[C@@H]1C[C@@H](O)CN1C(=O)[C@@H](NC(C)=O)C(C)(C)C)c1ccc(-c2scnc2C)cc1
- Activity (U2OS [7]): Active
- Activity (786-0): Non-Toxic
- Activity (HeLa [1]): 1.31 fold
- Activity (HeLa [2]): Non-Toxic
- IC50 [3]: 0.081 µM
- logD ([4]; read-out: logD): 1.59
- Activity [5]: 1.64 fold
- logP ([6]; read-out: logP): 1.59
- Activity (U2OS [8]): Non-Toxic

SMILES: CC(=O)N[C@H](C(=O)N1C[C@H](O)C[C@H]1C(=O)N[C@@H](CCc1ccncc1)c1ccc(-c2scnc2C)cc1)C(C)(C)C
- Activity (786-0): Non-Toxic
- Activity (HeLa [1]): 2.25 fold
- Activity (HeLa [2]): Non-Toxic
- IC50 [3]: 0.223 µM
- logD [4]: 2.7
- Activity [5]: 0.99 fold
- logP [6]: 2.18
- Activity (U2OS [8]): Non-Toxic

SMILES: CC(=O)N[C@H](C(=O)N1C[C@H](O)C[C@H]1C(=O)N[C@@H](CCC(=O)O)c1ccc(-c2scnc2C)cc1)C(C)(C)C
- Activity (U2OS [7]): Active
- Activity (786-0): Non-Toxic
- Activity (HeLa [1]): 0.99 fold
- Activity (HeLa [2]): Non-Toxic
- IC50 [3]: 0.063 µM
- logD ([4]; read-out: logD): -0.44
- Activity [5]: 1.91 fold
- logP ([6]; read-out: logP): 1.02
- Activity (U2OS [8]): Non-Toxic

SMILES: CC(=O)N[C@H](C(=O)N1C[C@H](O)C[C@H]1C(=O)NCc1ccc(-c2scnc2C)cc1)C(C)(C)C
- Activity (HeLa [1]): 1 fold
- Activity (HeLa [2]): Non-Toxic
- IC50 [3]: 0.204 µM
- logD ([4]; read-out: logD): 0.94
- Activity [5]: 1 fold
- logP ([6]; read-out: logP): 0.94

SMILES: CC(=O)N[C@H](C(=O)N1C[C@H](O)C[C@H]1C(=O)N[C@@H](CCc1ccc(O)cc1)c1ccc(-c2scnc2C)cc1)C(C)(C)C
- Activity (U2OS [7]): Active
- Activity (786-0): Non-Toxic
- Activity (HeLa [1]): 0.75 fold
- Activity (HeLa [2]): Non-Toxic
- IC50 [3]: 0.193 µM
- logD ([4]; read-out: logD): 3.08
- Activity [5]: 1.79 fold
- logP ([6]; read-out: logP): 3.08

SMILES: O=C(O)CNC(=O)c1c(O)c2ccccc2n(Cc2ccccc2)c1=O
- Activity (U2OS [7]): Active
- Activity (HeLa [9]): Active

SMILES: CC(=O)N[C@H](C(=O)N1C[C@H](O)C[C@H]1C(=O)N[C@@H](CCC(C)(C)C)c1ccc(-c2scnc2C)cc1)C(C)(C)C
- Activity (786-0): Non-Toxic
- Activity (HeLa [1]): 1.21 fold
- Activity (HeLa [2]): Non-Toxic
- IC50 [3]: 0.166 µM
- logD ([4]; read-out: logD): 3.21
- Activity [5]: 2.22 fold
- logP ([6]; read-out: logP): 3.21

SMILES: CCCC[C@H](NC(=O)[C@@H]1C[C@@H](O)CN1C(=O)[C@@H](NC(C)=O)C(C)(C)C)c1ccc(-c2scnc2C)cc1
- Activity (786-0): Non-Toxic
- Activity (HeLa [1]): 1.4 fold
- Activity (HeLa [2]): Non-Toxic
- IC50 [3]: 0.35 µM
- logD ([4]; read-out: logD): 2.75
- Activity [5]: 1.4 fold
- logP ([6]; read-out: logP): 2.75
- Activity (U2OS [8]): Non-Toxic

SMILES: CC(=O)N[C@H](C(=O)N1C[C@H](O)C[C@H]1C(=O)N[C@@H](CCc1ccc(Br)cc1)c1ccc(-c2scnc2C)cc1)C(C)(C)C
- Activity (U2OS [7]): Active
- Activity (786-0): Non-Toxic
- Activity (HeLa [1]): 0.91 fold
- Activity (HeLa [2]): Non-Toxic
- IC50 [3]: 0.189 µM
- logD ([4]; read-out: logD): 4.08
- Activity [5]: 1.88 fold
- logP ([6]; read-out: logP): 4.08
